Columns and labels:
[1] = human gut metagenome, 24 h, 2 µM
[2] = (§1) The drug is tested on WLS-370 corresponding to human gut metagenome with ENA study accession number: PRJEB37062 and ENA sample accession number: ERS12561793 for biotransformation under anaerobic condition. The drug concentrations were measured over 9 timepoints collected between 0 and 24 hours of incubation by liquid-chromatography-coupled mass spectrometry (LC–MS); conditions: 2 µM
[3] = as §1, with “WLS-052” for “WLS-370”, “ERS12561747” for “ERS12561793”; conditions: 2 µM
[4] = as §1, with “WLS-010” for “WLS-370”, “ERS12561743” for “ERS12561793”; conditions: 2 µM
[5] = as §1, with “WLS-310” for “WLS-370”, “ERS12561785” for “ERS12561793”; conditions: 2 µM
[6] = human gut metagenome, 24 h, 2 µM; remark: listed apart in the source
[7] = as §1, with “Z-019” for “WLS-370”, “rat” for “human”, “ERS12561818” for “ERS12561793”; conditions: 2 µM
[8] = as §1, with “Z-003” for “WLS-370”, “pig” for “human”, “ERS12561803” for “ERS12561793”; conditions: 2 µM
[9] = as §1, with “Z-010” for “WLS-370”, “to” for “to human gut”, “ERS12561810” for “ERS12561793”; conditions: 2 µM
[10] = as §1, with “Z-018” for “WLS-370”, “pig” for “human”, “ERS12561817” for “ERS12561793”; conditions: 2 µM
[11] = human gut metagenome, 24 h, 2 µM; remark: listed apart in the source
[12] = as §1, with “Z-024” for “WLS-370”, “pig” for “human”, “ERS12561823” for “ERS12561793”; conditions: 2 µM
[13] = human gut metagenome, 24 h, 2 µM; remark: listed apart in the source
[14] = as §1, with “Z-017” for “WLS-370”, “mouse” for “human”, “ERS12561816” for “ERS12561793”; conditions: 2 µM
[15] = as §1, with “Z-009” for “WLS-370”, “pig” for “human”, “ERS12561809” for “ERS12561793”; conditions: 2 µM
[16] = as §1, with “WLS-240” for “WLS-370”, “ERS12561773” for “ERS12561793”; conditions: 2 µM
[17] = human gut metagenome, 24 h, 2 µM; remark: listed apart in the source
[18] = as §1, with “Z-027” for “WLS-370”, “to” for “to human gut”, “ERS12561826” for “ERS12561793”; conditions: 2 µM
[19] = human gut metagenome, 24 h, 2 µM; remark: listed apart in the source
[20] = as §1, with “Z-012” for “WLS-370”, “to” for “to human gut”, “ERS12561812” for “ERS12561793”; conditions: 2 µM
Also: call rule not given here.

Compound: Cc1cc2c(cc1S(N)(=O)=O)S(=O)(=O)CCC2
- Bacterial Biotransformation [1]: Compound NOT metabolized
- Bacterial Biotransformation [2]: Compound NOT metabolized
- Bacterial Biotransformation [3]: Compound NOT metabolized
- Bacterial Biotransformation [4]: Compound NOT metabolized
- Bacterial Biotransformation [5]: Compound NOT metabolized
- Bacterial Biotransformation [6]: Compound NOT metabolized
- Bacterial Biotransformation [7]: Compound NOT metabolized
- Bacterial Biotransformation [8]: Compound NOT metabolized
- Bacterial Biotransformation [9]: Compound NOT metabolized
- Bacterial Biotransformation [10]: Compound NOT metabolized
- Bacterial Biotransformation [11]: Compound NOT metabolized
- Bacterial Biotransformation [12]: Compound NOT metabolized
- Bacterial Biotransformation [13]: Compound NOT metabolized
- Bacterial Biotransformation [14]: Compound NOT metabolized
- Bacterial Biotransformation [15]: Compound NOT metabolized
- Bacterial Biotransformation [16]: Compound NOT metabolized
- Bacterial Biotransformation [17]: Compound NOT metabolized
- Bacterial Biotransformation [18]: Compound NOT metabolized
- Bacterial Biotransformation [19]: Compound NOT metabolized
- Bacterial Biotransformation [20]: Compound NOT metabolized

Compound: CN1CCc2c(c3ccccc3n2Cc2ccccc2)C1.CN1CCc2c(c3ccccc3n2Cc2ccccc2)C1.O=S(=O)(O)c1cccc2c(S(=O)(=O)O)cccc12
- Bacterial Biotransformation [1]: Compound NOT metabolized
- Bacterial Biotransformation [2]: Compound metabolized
- Bacterial Biotransformation [3]: Compound NOT metabolized
- Bacterial Biotransformation [4]: Compound NOT metabolized
- Bacterial Biotransformation [5]: Compound NOT metabolized
- Bacterial Biotransformation [6]: Compound NOT metabolized
- Bacterial Biotransformation [7]: Compound NOT metabolized
- Bacterial Biotransformation [8]: Compound NOT metabolized
- Bacterial Biotransformation [9]: Compound NOT metabolized
- Bacterial Biotransformation [10]: Compound NOT metabolized
- Bacterial Biotransformation [11]: Compound metabolized
- Bacterial Biotransformation [12]: Compound metabolized
- Bacterial Biotransformation [13]: Compound NOT metabolized
- Bacterial Biotransformation [14]: Compound NOT metabolized
- Bacterial Biotransformation [15]: Compound NOT metabolized
- Bacterial Biotransformation [16]: Compound NOT metabolized
- Bacterial Biotransformation [17]: Compound metabolized
- Bacterial Biotransformation [18]: Compound NOT metabolized
- Bacterial Biotransformation [19]: Compound metabolized
- Bacterial Biotransformation [20]: Compound NOT metabolized

Compound: CN1CC(=O)N2[C@H](c3ccc4c(c3)OCO4)c3[nH]c4ccccc4c3C[C@@H]2C1=O
- Bacterial Biotransformation [1]: Compound metabolized
- Bacterial Biotransformation [2]: Compound metabolized
- Bacterial Biotransformation [3]: Compound metabolized
- Bacterial Biotransformation [4]: Compound metabolized
- Bacterial Biotransformation [5]: Compound metabolized
- Bacterial Biotransformation [6]: Compound metabolized
- Bacterial Biotransformation [7]: Compound NOT metabolized
- Bacterial Biotransformation [8]: Compound metabolized
- Bacterial Biotransformation [9]: Compound metabolized
- Bacterial Biotransformation [10]: Compound metabolized
- Bacterial Biotransformation [11]: Compound metabolized
- Bacterial Biotransformation [12]: Compound metabolized
- Bacterial Biotransformation [13]: Compound NOT metabolized
- Bacterial Biotransformation [14]: Compound NOT metabolized
- Bacterial Biotransformation [15]: Compound metabolized
- Bacterial Biotransformation [16]: Compound metabolized
- Bacterial Biotransformation [17]: Compound metabolized
- Bacterial Biotransformation [18]: Compound NOT metabolized
- Bacterial Biotransformation [19]: Compound metabolized
- Bacterial Biotransformation [20]: Compound metabolized

Compound: COc1cc2nc(N(C)CCCNC(=O)C3CCCO3)nc(N)c2cc1OC (stereo not given) [ALFUZOSIN]
- Bacterial Biotransformation [1]: Compound metabolized
- Bacterial Biotransformation [2]: Compound metabolized
- Bacterial Biotransformation [3]: Compound metabolized
- Bacterial Biotransformation [4]: Compound metabolized
- Bacterial Biotransformation [5]: Compound metabolized
- Bacterial Biotransformation [6]: Compound metabolized
- Bacterial Biotransformation [7]: Compound NOT metabolized
- Bacterial Biotransformation [8]: Compound metabolized
- Bacterial Biotransformation [9]: Compound metabolized
- Bacterial Biotransformation [10]: Compound metabolized
- Bacterial Biotransformation [11]: Compound metabolized
- Bacterial Biotransformation [12]: Compound NOT metabolized
- Bacterial Biotransformation [13]: Compound NOT metabolized
- Bacterial Biotransformation [14]: Compound NOT metabolized
- Bacterial Biotransformation [15]: Compound metabolized
- Bacterial Biotransformation [16]: Compound metabolized
- Bacterial Biotransformation [17]: Compound metabolized
- Bacterial Biotransformation [18]: Compound NOT metabolized
- Bacterial Biotransformation [19]: Compound metabolized
- Bacterial Biotransformation [20]: Compound NOT metabolized

Compound: NC12CC3CC(CC(C3)C1)C2 [AMANTADINE]
- Bacterial Biotransformation [1]: Compound NOT metabolized
- Bacterial Biotransformation [2]: Compound NOT metabolized
- Bacterial Biotransformation [3]: Compound NOT metabolized
- Bacterial Biotransformation [4]: Compound NOT metabolized
- Bacterial Biotransformation [5]: Compound NOT metabolized
- Bacterial Biotransformation [6]: Compound NOT metabolized
- Bacterial Biotransformation [7]: Compound NOT metabolized
- Bacterial Biotransformation [8]: Compound NOT metabolized
- Bacterial Biotransformation [9]: Compound NOT metabolized
- Bacterial Biotransformation [10]: Compound NOT metabolized
- Bacterial Biotransformation [11]: Compound NOT metabolized
- Bacterial Biotransformation [12]: Compound NOT metabolized
- Bacterial Biotransformation [13]: Compound NOT metabolized
- Bacterial Biotransformation [14]: Compound NOT metabolized
- Bacterial Biotransformation [15]: Compound NOT metabolized
- Bacterial Biotransformation [16]: Compound NOT metabolized
- Bacterial Biotransformation [17]: Compound NOT metabolized
- Bacterial Biotransformation [18]: Compound NOT metabolized
- Bacterial Biotransformation [19]: Compound NOT metabolized
- Bacterial Biotransformation [20]: Compound NOT metabolized

Compound: CC(C)(C#N)c1cc(Cn2cncn2)cc(C(C)(C)C#N)c1 [ANASTROZOLE]
- Bacterial Biotransformation [1]: Compound metabolized
- Bacterial Biotransformation [2]: Compound metabolized
- Bacterial Biotransformation [3]: Compound NOT metabolized
- Bacterial Biotransformation [4]: Compound NOT metabolized
- Bacterial Biotransformation [5]: Compound metabolized
- Bacterial Biotransformation [6]: Compound metabolized
- Bacterial Biotransformation [7]: Compound NOT metabolized
- Bacterial Biotransformation [8]: Compound metabolized
- Bacterial Biotransformation [9]: Compound NOT metabolized
- Bacterial Biotransformation [10]: Compound NOT metabolized
- Bacterial Biotransformation [11]: Compound metabolized
- Bacterial Biotransformation [12]: Compound metabolized
- Bacterial Biotransformation [13]: Compound NOT metabolized
- Bacterial Biotransformation [14]: Compound NOT metabolized
- Bacterial Biotransformation [15]: Compound metabolized
- Bacterial Biotransformation [16]: Compound metabolized
- Bacterial Biotransformation [17]: Compound NOT metabolized
- Bacterial Biotransformation [18]: Compound NOT metabolized
- Bacterial Biotransformation [19]: Compound metabolized
- Bacterial Biotransformation [20]: Compound NOT metabolized

Compound: O=P(O)(O)O.c1ccc(CN(CC2=NCCN2)c2ccccc2)cc1 [ANTAZOLINE PHOSPHATE]
- Bacterial Biotransformation [1]: Compound NOT metabolized
- Bacterial Biotransformation [2]: Compound metabolized
- Bacterial Biotransformation [3]: Compound NOT metabolized
- Bacterial Biotransformation [4]: Compound NOT metabolized
- Bacterial Biotransformation [5]: Compound NOT metabolized
- Bacterial Biotransformation [6]: Compound metabolized
- Bacterial Biotransformation [7]: Compound NOT metabolized
- Bacterial Biotransformation [8]: Compound metabolized
- Bacterial Biotransformation [9]: Compound metabolized
- Bacterial Biotransformation [10]: Compound NOT metabolized
- Bacterial Biotransformation [11]: Compound NOT metabolized
- Bacterial Biotransformation [12]: Compound metabolized
- Bacterial Biotransformation [13]: Compound NOT metabolized
- Bacterial Biotransformation [14]: Compound NOT metabolized
- Bacterial Biotransformation [15]: Compound NOT metabolized
- Bacterial Biotransformation [16]: Compound metabolized
- Bacterial Biotransformation [17]: Compound NOT metabolized
- Bacterial Biotransformation [18]: Compound NOT metabolized
- Bacterial Biotransformation [19]: Compound metabolized
- Bacterial Biotransformation [20]: Compound NOT metabolized

Compound: CN1CCC(=C2c3ccccc3CCc3cccnc32)CC1.O=C(O)/C=C\C(=O)O.O=C(O)/C=C\C(=O)O [AZATADINE MALEATE]
- Bacterial Biotransformation [1]: Compound NOT metabolized
- Bacterial Biotransformation [2]: Compound NOT metabolized
- Bacterial Biotransformation [3]: Compound NOT metabolized
- Bacterial Biotransformation [4]: Compound NOT metabolized
- Bacterial Biotransformation [5]: Compound NOT metabolized
- Bacterial Biotransformation [6]: Compound NOT metabolized
- Bacterial Biotransformation [7]: Compound NOT metabolized
- Bacterial Biotransformation [8]: Compound NOT metabolized
- Bacterial Biotransformation [9]: Compound NOT metabolized
- Bacterial Biotransformation [10]: Compound NOT metabolized
- Bacterial Biotransformation [11]: Compound NOT metabolized
- Bacterial Biotransformation [12]: Compound NOT metabolized
- Bacterial Biotransformation [13]: Compound NOT metabolized
- Bacterial Biotransformation [14]: Compound NOT metabolized
- Bacterial Biotransformation [15]: Compound NOT metabolized
- Bacterial Biotransformation [16]: Compound NOT metabolized
- Bacterial Biotransformation [17]: Compound NOT metabolized
- Bacterial Biotransformation [18]: Compound NOT metabolized
- Bacterial Biotransformation [19]: Compound NOT metabolized
- Bacterial Biotransformation [20]: Compound NOT metabolized
